Data set [1] has as its target CYP3A4 (Homo sapiens, UniProt P08684). Kind of data set: Cytochrome P450 inhibition assay, CYP3A4. As to conditions: liver microsomes. A general note: Microsomes from liver hold many membrane-bound enzymes, among them those of drug oxidation.
Data set [2] concerns the target CYP2C9 (Homo sapiens, UniProt P11712). Kind of data set: Cytochrome P450 inhibition assay, CYP2C9. As to conditions: liver microsomes.
Data set [3] in a line: Solubility in 0.05M PO4-. To be noted: for solubility: 0.05 M phosphate buffer, aqueous buffer. Type of data set: physicochemical.
Data set [4] addresses CYP2D6 (Homo sapiens, UniProt P10635). In words: Cytochrome P450 inhibition assay, CYP2D6. As to conditions: liver microsomes.
The nature of data set [5]: Microsomal clearance, human microsomes.
Data set [6] can be described thus: Microsomal clearance, mouse microsomes.
Data set [7] in a line: Hepatocyte clearance. As to conditions: for hepatocyte CLint at 1 µM: human, primary pooled cryopreserved hepatocytes in suspension.
In data set [8] the target is T1, human MAGL (Homo sapiens, UniProt Q99685).
T1 sequence (Q99685 1-303): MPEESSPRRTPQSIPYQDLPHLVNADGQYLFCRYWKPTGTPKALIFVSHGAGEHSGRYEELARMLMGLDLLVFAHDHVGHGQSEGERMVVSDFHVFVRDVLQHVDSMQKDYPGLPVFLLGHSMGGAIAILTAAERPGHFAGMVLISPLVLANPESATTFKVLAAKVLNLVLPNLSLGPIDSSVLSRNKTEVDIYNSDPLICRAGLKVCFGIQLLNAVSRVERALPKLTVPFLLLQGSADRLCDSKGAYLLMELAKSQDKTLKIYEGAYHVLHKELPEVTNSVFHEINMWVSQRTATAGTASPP
To be noted: = pIC50 - cLogP.

Data set [9] has as its target ABCB1 (MDR1, human P-gp) (Homo sapiens, UniProt P08183). Kind of data set: P-glycoprotein (P-gp) assay in LLC-PK1 cells transfected with ABCB1. To be noted: human, LLC-PK1.
The nature of data set [10]: Parallel Artificial Membrane Permeability (PAMPA). To be noted: for Papp at 18 h, 150 µM: PAMPA, pH 6; for PAMPA permeability: donor buffer pH 6.0, 18-hour incubation.
The nature of data set [11]: Solubility in FESSIF. Type of data set: physicochemical.

In brackets after ≈: the same amount, converted by molar mass.

CYP2D6, sequence (P10635 whole entry): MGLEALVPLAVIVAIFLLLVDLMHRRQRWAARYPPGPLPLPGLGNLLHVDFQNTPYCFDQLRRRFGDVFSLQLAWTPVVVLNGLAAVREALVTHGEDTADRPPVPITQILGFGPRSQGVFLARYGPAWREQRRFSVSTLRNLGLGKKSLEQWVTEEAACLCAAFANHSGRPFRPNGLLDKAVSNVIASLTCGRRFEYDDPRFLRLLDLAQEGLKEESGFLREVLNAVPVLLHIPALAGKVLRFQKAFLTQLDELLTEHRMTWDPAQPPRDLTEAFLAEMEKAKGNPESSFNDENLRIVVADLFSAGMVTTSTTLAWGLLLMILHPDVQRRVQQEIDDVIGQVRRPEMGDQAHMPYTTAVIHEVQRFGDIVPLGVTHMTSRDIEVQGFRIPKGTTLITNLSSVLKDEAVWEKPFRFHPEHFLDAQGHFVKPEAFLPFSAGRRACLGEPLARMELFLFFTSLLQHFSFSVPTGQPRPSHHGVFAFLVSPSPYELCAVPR
ABCB1 (MDR1, human P-gp), sequence (P08183 whole entry): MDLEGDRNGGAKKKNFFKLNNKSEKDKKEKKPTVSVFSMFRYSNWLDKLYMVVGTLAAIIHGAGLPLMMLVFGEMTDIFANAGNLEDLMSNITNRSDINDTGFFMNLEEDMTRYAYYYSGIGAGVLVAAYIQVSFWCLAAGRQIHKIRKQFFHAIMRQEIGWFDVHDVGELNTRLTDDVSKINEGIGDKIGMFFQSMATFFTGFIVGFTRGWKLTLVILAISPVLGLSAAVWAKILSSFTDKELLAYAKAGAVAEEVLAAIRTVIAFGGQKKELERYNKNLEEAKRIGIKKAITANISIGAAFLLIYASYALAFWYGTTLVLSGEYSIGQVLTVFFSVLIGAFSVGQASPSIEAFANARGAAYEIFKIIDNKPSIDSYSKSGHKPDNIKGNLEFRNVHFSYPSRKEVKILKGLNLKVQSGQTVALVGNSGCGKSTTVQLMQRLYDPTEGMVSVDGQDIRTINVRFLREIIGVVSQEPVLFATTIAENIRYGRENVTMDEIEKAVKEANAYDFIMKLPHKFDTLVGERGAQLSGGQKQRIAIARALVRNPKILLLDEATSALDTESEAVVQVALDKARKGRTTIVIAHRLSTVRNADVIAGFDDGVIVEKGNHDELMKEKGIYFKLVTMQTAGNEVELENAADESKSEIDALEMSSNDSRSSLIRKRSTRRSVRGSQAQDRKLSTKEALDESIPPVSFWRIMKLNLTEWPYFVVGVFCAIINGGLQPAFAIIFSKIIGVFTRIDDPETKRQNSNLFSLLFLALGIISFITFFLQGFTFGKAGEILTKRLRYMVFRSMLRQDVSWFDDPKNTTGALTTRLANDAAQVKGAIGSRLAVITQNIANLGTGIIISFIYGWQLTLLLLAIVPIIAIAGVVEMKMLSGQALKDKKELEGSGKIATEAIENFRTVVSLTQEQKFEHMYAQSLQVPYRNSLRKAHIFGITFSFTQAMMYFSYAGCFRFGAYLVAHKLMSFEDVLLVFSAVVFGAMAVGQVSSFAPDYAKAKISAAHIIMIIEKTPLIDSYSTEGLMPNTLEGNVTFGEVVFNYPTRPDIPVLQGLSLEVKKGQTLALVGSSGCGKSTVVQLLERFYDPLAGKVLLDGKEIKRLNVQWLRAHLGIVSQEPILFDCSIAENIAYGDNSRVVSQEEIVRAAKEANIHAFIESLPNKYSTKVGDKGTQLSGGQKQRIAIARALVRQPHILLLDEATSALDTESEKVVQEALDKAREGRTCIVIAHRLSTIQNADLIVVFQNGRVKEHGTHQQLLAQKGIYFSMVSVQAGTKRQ
CYP2C9, sequence (P11712 whole entry): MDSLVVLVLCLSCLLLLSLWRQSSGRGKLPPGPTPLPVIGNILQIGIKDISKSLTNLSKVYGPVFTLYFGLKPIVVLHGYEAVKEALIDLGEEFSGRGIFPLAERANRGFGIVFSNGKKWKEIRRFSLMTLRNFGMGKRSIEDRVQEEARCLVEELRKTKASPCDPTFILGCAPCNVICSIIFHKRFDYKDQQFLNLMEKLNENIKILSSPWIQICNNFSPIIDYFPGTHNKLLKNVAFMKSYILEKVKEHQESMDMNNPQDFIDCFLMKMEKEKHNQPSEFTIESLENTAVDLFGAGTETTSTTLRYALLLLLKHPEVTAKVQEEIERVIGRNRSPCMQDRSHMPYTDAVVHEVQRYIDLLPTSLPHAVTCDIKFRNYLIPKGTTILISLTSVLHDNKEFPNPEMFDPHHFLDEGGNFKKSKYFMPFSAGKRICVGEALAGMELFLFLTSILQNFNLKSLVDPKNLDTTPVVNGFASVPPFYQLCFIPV
CYP3A4, sequence (P08684 whole entry): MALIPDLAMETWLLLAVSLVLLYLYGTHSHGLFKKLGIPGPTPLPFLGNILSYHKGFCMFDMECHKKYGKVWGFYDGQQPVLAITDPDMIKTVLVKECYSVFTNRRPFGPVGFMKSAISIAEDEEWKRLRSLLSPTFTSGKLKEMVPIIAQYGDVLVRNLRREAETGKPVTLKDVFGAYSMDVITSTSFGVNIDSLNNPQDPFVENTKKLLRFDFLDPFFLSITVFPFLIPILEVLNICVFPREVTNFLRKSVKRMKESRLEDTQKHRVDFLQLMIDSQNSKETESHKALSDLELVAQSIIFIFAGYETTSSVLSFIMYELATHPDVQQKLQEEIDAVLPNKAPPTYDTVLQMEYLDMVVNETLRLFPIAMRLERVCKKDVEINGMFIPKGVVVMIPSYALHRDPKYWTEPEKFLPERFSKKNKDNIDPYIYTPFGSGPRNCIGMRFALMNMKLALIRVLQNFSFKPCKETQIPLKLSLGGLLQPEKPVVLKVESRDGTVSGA

Consider `O=C(c1ccc2nc(-c3cnccc3C3CCCC3)oc2c1)N1CCN(c2nc3ccccc3c(=O)[nH]2)CC1` [Compound 18], for which the “CYP3A4 Inhibition” value in data set [1] is on record as > 90%. In addition, in data set [2], the “CYP2C9 Inhibition” value was 62%. Further, the solubility in data set [3] is < 0.05 µg/mL. In addition, the “CYP2D6 Inhibition” value in data set [4] was determined as 45%. In data set [5], the microsomal CLint at 1 µM is 853 µL/min/mg.
`O=C(c1ccc2nc(-c3cnc(C4CCCCC4)cc3C3CCCCC3)oc2c1)N1CCN(c2nc3ccccc3c(=O)[nH]2)CC1` [Compound 19]: the results for the microsomal CLint at 1 µM in data set [6] and in [5] were 47 µL/min/mg and 17 µL/min/mg, respectively. The “CYP3A4 Inhibition” value in data set [1] is recorded as 44%. The hepatocyte CLint at 1 µM in [7] stood at 4.6 µL/min/1e6 cells. In data set [2], the “CYP2C9 Inhibition” value turned out to be 49%. For the same molecule, the solubility in data set [3] is < 1.1 µg/mL. Besides, the “CYP2D6 Inhibition” value in data set [4] is given as 23%.
For `O=C(c1ccc2nc(-c3ccc(C4(C5CCC5)CC4)nc3)oc2c1)N1CCN(c2nc3ccccc3c(=O)[nH]2)CC1` [Compound 20], the “CYP3A4 Inhibition” value in data set [1] is listed as 49%. Further, the Hepatocyte clearance in [7] (cryopreserved hepatocytes of human origin, 1 µM compound) turned out to be 84.2 µL/min/10^6 cells. Further, the “CYP2C9 Inhibition” value in data set [2] was determined as 24%. Besides, the “Solubility in 0.05M PO4-” value in [3] was < 0.05 µg/mL. Further, in data set [4], the “CYP2D6 Inhibition” value was found to be 16%. In [8], the “Lipophilic efficiency (LipE)” value was determined as 2.84.
In data set [9], `O=C(c1ccc2nc(-c3cccnc3C3CCCC3)oc2c1)N1CCN(c2nc3ccccc3c(=O)[nH]2)CC1` [Compound 21] registered a Papp A→B of 10 ×10⁻⁶ cm/s. In data set [10], the apparent permeability (Papp) at 18 h, 150 µM came out at 3.7 ×10⁻⁶ cm/s. For the same molecule, the microsomal CLint at 1 µM stood at 114 µL/min/mg in data set [6] and 53 µL/min/mg in [5]. In addition, in data set [1], the “CYP3A4 Inhibition” value amounted to 4%. The intrinsic metabolic clearance (hepatocyte CLint) at 1 µM in [7] came to 47.7 µL/min/1e6 cells. In data set [2], the “CYP2C9 Inhibition” value is given as 74%. Also, the solubility in data set [3] is < 0.05 µg/mL. Besides, the “CYP2D6 Inhibition” value in data set [4] is reported as 41%.
Molecule `O=C(c1ccc2nc(-c3ccc(C4CCCC4)nc3)oc2c1)N1CCN(c2nc3ccccc3c(=O)[nH]2)CC1` [Compound 22] displayed an apical-to-basolateral permeability (Papp A→B) in [9] of 8.1 ×10⁻⁶ cm/s. Also, the apparent permeability coefficient (Papp) at 18 h, 150 µM in data set [10] was found to be 2.7 ×10⁻⁶ cm/s. Moreover, in [1], the “CYP3A4 Inhibition” value is -59%. Moreover, the hepatocyte CLint at 1 µM in [7] is 104 µL/min/1e6 cells. Also, the “CYP2C9 Inhibition” value in data set [2] is reported as 23%. For the same molecule, the solubility in [3] is < 0.05 µg/mL. For the same molecule, the “CYP2D6 Inhibition” value in data set [4] is on record as 62%. Also, the microsomal CLint at 1 µM in data set [5] is 142 µL/min/mg.
In data set [9], `O=C(c1ccc2nc(-c3cccnc3C3CCCC3)oc2c1)N1CCN(c2nc3nc(Cl)ccc3o2)CC1` [Compound 24] showed a Papp A→B of 9.3 ×10⁻⁶ cm/s. The same molecule gave a Papp at 18 h, 150 µM in data set [10] of 8.5 ×10⁻⁶ cm/s. In addition, the values for the microsomal CLint at 1 µM in data set [6] and in data set [5] were 61 µL/min/mg and 69 µL/min/mg, respectively. For the same molecule, in data set [1], the “CYP3A4 Inhibition” value amounted to 8%. In addition, the hepatocyte CLint at 1 µM in data set [7] amounted to 42.2 µL/min/1e6 cells. Further, in [2], the “CYP2C9 Inhibition” value is reported as 45%. The solubility in data set [3] is < 0.05 µg/mL; in [11] it was 2.5 µg/mL (≈ 4.73 µM). In addition, the “CYP2D6 Inhibition” value in [4] is listed as 26%.
As to `O=C(c1ccc2nc(-c3cnccc3C3CCNCC3)oc2c1)N1CCN(c2nc3nc(Cl)ccc3o2)CC1.O=CO` [Compound 25], in data set [10], the apparent permeability (Papp) at 18 h, 150 µM was found to be 0.02 ×10⁻⁶ cm/s. In addition, the intrinsic metabolic clearance (microsomal CLint) at 1 µM in data set [6] and in data set [5] was 10 µL/min/mg each time. In data set [1], the “CYP3A4 Inhibition” value was found to be 70%. The molecule also came in with a hepatocyte CLint at 1 µM in data set [7] of 1 µL/min/1e6 cells. Also, in data set [2], the “CYP2C9 Inhibition” value was -5%. The solubility in data set [3] stood at 84 µg/mL. In addition, the “CYP2D6 Inhibition” value in data set [4] was 34%.
Take `O=C(c1ccc2nc(-c3cccnc3C3CCNCC3)oc2c1)N1CCN(c2nc3nc(Cl)ccc3o2)CC1.O=CO` [Compound 26]: the PAMPA permeability in data set [10] was 0.01 10^-6 cm/s. Further, the “CYP3A4 Inhibition” value in data set [1] was 12%. Besides, the “CYP2C9 Inhibition” value in [2] is -23%. Moreover, in [3], the “Solubility in 0.05M PO4-” value is > 590 µg/mL. For the same molecule, the “CYP2D6 Inhibition” value in data set [4] turned out to be 18%.
`O=C(c1ccc2nc(-c3cccnc3C3(C4CCC4)CC3)oc2c1)N1CCN(c2nc3nc(Cl)ccc3o2)CC1` [Compound 28]: the PAMPA permeability in [10] is listed as 5.8 10^-6 cm/s. Moreover, the “Lipophilic efficiency (LipE)” value in data set [8] is 2.31.
Molecule `O=C(c1ccc2nc(-c3ccc(C4CCCC4)nc3)oc2c1)N1CC2(CC(n3cnc(C4CC4)n3)C2)C1` [Compound 30] displayed a Papp at 18 h, 150 µM in data set [10] of 4.4 ×10⁻⁶ cm/s. Also, the “CYP3A4 Inhibition” value in data set [1] is reported as -40%. In data set [7], this molecule returned a hepatocyte CLint at 1 µM of 187 µL/min/1e6 cells. The “CYP2C9 Inhibition” value in data set [2] is listed as -19%. In addition, the solubility in [3] is < 0.05 µg/mL. The “CYP2D6 Inhibition” value in [4] is on record as 3%. In addition, the microsomal CLint at 1 µM in data set [5] turned out to be 563 µL/min/mg.
Consider `O=C(c1ccc2nc(-c3cnccc3C3CCCC3)oc2c1)N1CC(N2CCN(C(=O)c3nccs3)CC2)C1` [Compound 31], for which the apparent permeability coefficient (Papp) at 18 h, 150 µM in data set [10] was 12.1 ×10⁻⁶ cm/s. Also, in data set [10] (in words, SI2.2, Fig. S1 (PAMPA vs LipE)), the cell permeability result is listed as “potent cell permeability”. Moreover, the “CYP3A4 Inhibition” value in data set [1] was > 90%. The intrinsic clearance (hepatocyte CLint) at 1 µM in data set [7] worked out at 163 µL/min/1e6 cells. The “CYP2C9 Inhibition” value in data set [2] amounted to 43%. Further, the “CYP2D6 Inhibition” value in data set [4] is recorded as 22%. In [5], the intrinsic metabolic clearance (microsomal CLint) at 1 µM came out at 431 µL/min/mg.

The term solubility denotes the concentration that dissolves in the medium under given conditions. What is called microsomal CLint is the capacity of the preparation to metabolise the compound, expressed as a volume cleared per time. A lower microsomal CLint goes with slow turnover. In general, hepatocyte CLint refers to the rate of metabolic loss divided by the concentration. A lower hepatocyte CLint goes with slow turnover. For orientation: Papp A→B means the apparent permeability from the apical to the basolateral side of a cell layer. A word on the Papp: it is a coefficient for how fast a substance crosses the barrier. A lower Papp goes with poor permeation.
